The test system of one series is Rattus norvegicus. The experiment in a line: (§1) Tmax in rat at 5 mg/kg, po. Type of series: ADME, organism-based. The settings on record: in vivo, BLD = below limit of detection.
The nature of series [1]: as §1. Type of series: ADME, organism-based. The settings on record: in vivo.
Series [2] is described as follows: AUC (0 to infinity) in rat at 5 mg/kg, po. To be noted: in vivo. Type of series: ADME, organism-based. Also noted: dose 5 mg/kg, time infinity, route oral.
A short description of series [3]: Cmax in rat at 5 mg/kg, po. It is filed as ADME, organism-based. Set-up: dose 5 mg/kg, route oral. The settings on record: in vivo.
The nature of series [4]: Oral bioavailability in rat at 5 mg/kg. To be noted: in vivo. Type of series: ADME, organism-based.
A short description of series [5]: Mean residence time in rat at 2 mg/kg, iv. The settings on record: in vivo. Type of series: ADME, organism-based.
Series [6] is described as follows: Plasma concentration in CB17 SCID mouse xenografted with human PC3 cells at 10 mg/kg, po measured at 6 hrs by LC/MS-MS analysis. Type of series: ADME, organism-based, PC-3. For orientation: Xenograft models place foreign cells or tissue in a host animal.
Series [7] can be described thus: Plasma concentration in CB17 SCID mouse xenografted with human PC3 cells at 1 mg/kg, po measured at 1 hr by LC/MS-MS analysis. Type of series: ADME, organism-based, PC-3.
The nature of series [8]: Oral bioavailability in mouse at 5 mg/kg. To be noted: in vivo. It is filed as ADME, organism-based.
Series [9] can be described thus: Plasma concentration in CB17 SCID mouse xenografted with human PC3 cells at 10 mg/kg, po measured at 1 hr by LC/MS-MS analysis. It is filed as ADME, organism-based, PC-3.
Series [10] is described as follows: Plasma concentration in CB17 SCID mouse xenografted with human PC3 cells at 1 mg/kg, po measured at 24 hrs by LC/MS-MS analysis. It is filed as ADME, organism-based, PC-3.
Series [11] is described as follows: Oral bioavailability in dog at 0.3 mg/kg. It is filed as ADME, organism-based, Canis lupus familiaris. To be noted: in vivo.
Series [12] can be described thus: Plasma concentration in CB17 SCID mouse xenografted with human PC3 cells at 1 mg/kg, po measured at 3 hrs by LC/MS-MS analysis. Type of series: ADME, organism-based, PC-3.
Series [13] can be described thus: Plasma concentration in CB17 SCID mouse xenografted with human PC3 cells at 1 mg/kg, po measured at 10 hrs by LC/MS-MS analysis. It is filed as ADME, organism-based, PC-3.
Series [14] can be described thus: Plasma concentration in CB17 SCID mouse xenografted with human PC3 cells at 10 mg/kg, po measured at 3 hrs by LC/MS-MS analysis. It is filed as ADME, organism-based, PC-3.
Series [15] can be described thus: Plasma concentration in CB17 SCID mouse xenografted with human PC3 cells at 10 mg/kg, po measured at 24 hrs by LC/MS-MS analysis. It is filed as ADME, organism-based, PC-3.
Series [16] can be described thus: Plasma concentration in CB17 SCID mouse xenografted with human PC3 cells at 10 mg/kg, po measured at 10 hrs by LC/MS-MS analysis. It is filed as ADME, organism-based, PC-3.
Series [17] is described as follows: Plasma concentration in CB17 SCID mouse xenografted with human PC3 cells at 1 mg/kg, po measured at 6 hrs by LC/MS-MS analysis. Type of series: ADME, organism-based, PC-3.

Broadly, the Tmax is the time from dosing to the highest level. Regarding `O=C1CN(CCC2CCOCC2)c2nc(-c3ccc(-c4nc[nH]n4)cc3)cnc2N1`, the time of peak concentration (Tmax) result in the series with Rattus norvegicus is recorded as “BLD”.
A word on the AUC(0-inf): it is total exposure, with the tail of the curve extrapolated. Read a low AUC(0-inf) as less exposure. The term Cmax denotes the maximum level reached in the sampled fluid or tissue. As for `O=C1CN(CCC2CCOCC2)c2nc(-c3ccc(-c4nc[nH]n4)nc3)cnc2N1`, the Tmax in [1] was 0.9 h. The same compound showed an AUC(0-inf) in series [2] of 0.18 µM·h. Further, in series [3], the Cmax amounted to 20 nM.
As a reminder, the bioavailability is the share of a dose that reaches the circulation, judged against a reference dose that is usually intravenous. As usually defined, the MRT is the average time that molecules of a dose stay in the body. Compound `CCN1CC(=O)Nc2ncc(-c3ccc(-c4nc[nH]n4)nc3C)nc21` had a bioavailability in [4] of 50%. In series [2], this compound had a total exposure AUC(0-inf) of 5.27 µM·h. In addition, in series [5], the MRT came out at 1.2 h. This compound also had a Cmax in series [3] of 550 nM.
With `CCN1C(=O)CNc2ncc(-c3ccc(-c4nc[nH]n4)nc3C)nc21` [CC-115], the concentration at 6 h in series [6] turned out to be 2100 nM; in series [17], 130 nM. Further, the concentration at 1 h was found to be 530 nM in series [7] and 6780 nM in series [9]. For the same compound, the bioavailability in [8] is 53%; in [11], 100%; in series [4] it was 78%. Further, the concentration at 24 h is 5 nM in series [10] and 800 nM in series [15]. For the same compound, the concentration at 3 h in [12] was 340 nM; in series [14], 5690 nM. The results for the concentration at 10 h in [13] and in series [16] were 120 nM and 1180 nM, respectively. In [2], this compound registered an AUC(0-inf) of 27.5 µM·h. In [5], this compound registered a mean residence time (MRT) of 4.3 h. Besides, the Cmax in [3] worked out at 1670 nM.

For the origin of these results see ChEMBL document CHEMBL3585264 (J Med Chem, 2015).
